From patent publication US8354414B2, “Substituted bicyclic pyrimidines” (Cephalon, Inc, priority 2006, dated 2013)
Where two headings read alike, the source gives them in different places.

How the values were obtained:
[1] = biological target: T1, CDK5/GST-p25 (Homo sapiens, UniProt Q00535); experiment: Inhibition of CDK5/GST-p25 kinase activity (ELISA with time-resolved fluorescence readout); format: biochemical
T1 construct: The final construct, encoding for full-length human CDK5; made in house; host or cells: Sf21 insect cells (baculovirus co-infection)
In short: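 Sf21-coexpressed full-length human CDK5 with GST-p25 (p35 aa 108-307), glutathione-purified, at 2 ng/ml was reacted for 20 min at 37 °C on plate-coated GST-Rb(773-928). Buffer was 20 mM HEPES pH 7.2, 10 µM ATP, 10 mM MgCl2 and 2.5% DMSO. Phospho-Rb Ser-780 was detected by Eu-labelled antibody TRF, and IC50 curves were fitted.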

[2] = biological target: T2, His6-GSK-3β (Homo sapiens, UniProt P49841); experiment: Inhibition of His6-GSK-3β kinase activity (ELISA-based format, time-resolved fluorescence readout); format: biochemical; conditions: read-out: GSK3β IC50
T2 construct: made in house; host or cells: Sf21 insect cells (baculovirus)
In short: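 N-terminal His6-tagged full-length human GSK-3β (aa 2-419) expressed in Sf21 cells, 200 ng/ml, phosphorylating plate-coated GST-Rb with 20 μM ATP in pH 7.2 HEPES buffer, 30 min at 37° C. Phospho-Rb (Ser-780) detected by antibody plus Eu-labelled secondary, time-resolved fluorescence; IC50 from curves.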

T2 sequence (P49841 2-419): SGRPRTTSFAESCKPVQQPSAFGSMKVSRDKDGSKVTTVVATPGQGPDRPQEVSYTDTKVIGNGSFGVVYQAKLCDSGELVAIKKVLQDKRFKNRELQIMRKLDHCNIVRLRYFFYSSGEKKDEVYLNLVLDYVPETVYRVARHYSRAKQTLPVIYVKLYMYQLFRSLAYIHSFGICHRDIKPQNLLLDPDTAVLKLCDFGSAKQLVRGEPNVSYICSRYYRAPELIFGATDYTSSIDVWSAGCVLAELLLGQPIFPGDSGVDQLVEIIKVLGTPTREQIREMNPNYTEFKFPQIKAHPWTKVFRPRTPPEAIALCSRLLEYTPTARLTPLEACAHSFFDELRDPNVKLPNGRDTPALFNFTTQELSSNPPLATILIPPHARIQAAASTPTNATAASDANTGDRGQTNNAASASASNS
T1 sequence (Q00535 whole entry): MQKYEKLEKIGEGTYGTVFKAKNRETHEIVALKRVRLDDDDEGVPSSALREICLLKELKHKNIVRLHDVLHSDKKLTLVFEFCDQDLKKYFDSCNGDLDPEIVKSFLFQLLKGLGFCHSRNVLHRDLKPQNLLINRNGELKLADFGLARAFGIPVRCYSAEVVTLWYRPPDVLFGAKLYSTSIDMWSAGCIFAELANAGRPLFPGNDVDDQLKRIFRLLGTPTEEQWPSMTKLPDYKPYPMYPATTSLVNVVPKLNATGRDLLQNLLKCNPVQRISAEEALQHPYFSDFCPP
T1 sequence (Q15078 108-307 partner limits assumed): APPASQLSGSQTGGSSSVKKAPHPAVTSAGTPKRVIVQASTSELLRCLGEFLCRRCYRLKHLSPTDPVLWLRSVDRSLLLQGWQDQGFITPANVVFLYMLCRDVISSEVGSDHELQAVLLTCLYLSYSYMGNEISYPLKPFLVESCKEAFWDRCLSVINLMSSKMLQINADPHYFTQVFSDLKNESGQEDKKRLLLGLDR

IC50 ([1]; numeric bounds) | melting point | IC50 ([2]; class symbols) | IC50 ([1]; class symbols) | inhibition at 10 µM [1] | IC50 ([2]; numeric bounds) | Compound
> 3000 nM | 254 °C (dec.) | 300 to 3000 nM |  |  |  | CCCCCn1cc2c(C3C(=O)Nc4ccc(C#N)cc43)nc(Cl)nc2n1 (stereo not drawn) [Example 291, 3-(6-Chloro-2-pentyl-2H-pyrazolo [3,4-d]pyrimidin-4-yl)-2-oxo-2,3-dihydro-1H-indole-5-carbonitrile]
 | > 300 °C | 300 to 3000 nM | 300 to 3000 nM |  |  | O=C1Nc2c(cc([N+](=O)[O-])cc2[N+](=O)[O-])C1c1ncnc2nn(C3CCCC3)cc12 (stereo not drawn) [Example 43, 3-(2-Cyclopentyl-2H-pyrazolo[3,4-d]pyrimidin-4-yl)-5,7-dinitro-1,3-dihydro-indol-2-one]
 | 294 to 298 °C | < 300 nM | 300 to 3000 nM |  |  | O=C1Nc2ccc(Cl)cc2C1c1ncnc2nn(C3CCCCC3)cc12 (stereo not drawn) [Example 48, 5-Chloro-3-(2-cyclohexyl-2H-pyrazolo[3,4-d]pyrimidin-4-yl)-1,3-dihydro-indol-2-one]
 | > 300 °C | < 300 nM |  | 56% |  | C[C@H](O)CNc1nc(C2C(=O)Nc3ccc(Cl)cc32)c2cn(C3CCCC3)nc2n1 (stereo partly drawn) [Example 374]
 | 250.5 to 254 °C | < 300 nM | < 300 nM |  |  | CC(C)Cn1cc2c(C3C(=O)Nc4ccc(Br)cc43)nc(NCCCN(C)C)nc2n1 (stereo not drawn) [Example 269, 5-Bromo-3-[6-(3-dimethylamino-propylamino)-2-isobutyl-2H-pyrazolo [3,4-d]pyrimidin-4-yl]-1,3-dihydro-indol-2-one]
 | 288 to 290 °C (dec.) | < 300 nM | < 300 nM |  |  | CCCCCn1cc2c(C3C(=O)Nc4ccc(C#N)cc43)nc(NCc3ccncc3)nc2n1 (stereo not drawn) [Example 292, 2-Oxo-3-{2-pentyl-6-[(pyridin-4-ylmethyl)-amino]-2H-pyrazolo [3,4-d]pyrimidin-4-yl}-2,3-dihydro-1H-indole-5-carbonitrile]
> 3000 nM | 198 to 200 °C | < 300 nM |  |  |  | CN(C)CCCNc1nc(C2C(=O)Nc3ccc(Br)cc32)c2cn(C3CCCC3)nc2n1 (stereo not drawn) [Example 371, 5-Bromo-3-[2-cyclopentyl-6-(3-dimethylamino-propylamino)-2H-pyrazolo [3,4-d]pyrimidin-4-yl]-1,3-dihydro-indol-2-one]
 | > 300 °C |  |  | 63% | > 1000 nM | C=CCNc1nc(C2C(=O)Nc3ccccc32)c2cn(C3CCCC3)nc2n1 (stereo not drawn) [Example 243, 3-(6-Allylamino-2-cyclopentyl-2H-pyrazolo[3,4-d]pyrimidin-4-yl)-1,3-dihydro-indol-2-one]
 | 295 °C (dec.) |  | > 10000 nM |  | > 3000 nM | CC(C)Cn1cc2c(C3C(=O)Nc4ccc(Br)cc43)nc(Cl)nc2n1 (stereo not drawn) [Example 262, 5-Bromo-3-(6-chloro-2-isobutyl-2H-pyrazolo[3,4-d]pyrimidin-4-yl)-1,3-dihydro-indol-2-one]
 | 246 to 248 °C | 300 to 3000 nM |  | 43% |  | O=C1Nc2ccccc2C1c1nc(NCCc2ccccn2)nc2nn(C3CCCC3)cc12 (stereo not drawn) [Example 242, 3-[2-Cyclopentyl-6-(2-pyridin-2-yl-ethylamino)-2H-pyrazolo[3,4-d]pyrimidin-4-yl]-1,3-dihydro-indol-2-one]
 | > 300 °C | > 10000 nM | > 10000 nM |  |  | CNc1nc(C2C(=O)Nc3ccc(C(F)(F)F)cc32)c2cn(C3CCCC3)nc2n1 (stereo not drawn) [Example 159, 3(-2-cyclopentyl-6-methylamino-2H-pyrazolo[3,4-d]pyrimidin-4-yl)-5-trifluoromethyl-1,3-dihydro-indol-2-one]
 | 373 °C (dec.) | < 300 nM |  | 41% |  | CCNc1nc(C2C(=O)Nc3ccc(C#N)cc32)c2cn(C3CCCC3)nc2n1 (stereo not drawn) [Example 166, 3-(2-cyclopentyl-6-ethylamino-2H-pyrazolo[3,4-d]pyrimidin-4-yl)-2-oxo-2,3-dihydro-1H-indole-5-carbonitrile]
 | 230 to 233 °C |  | > 10000 nM |  | > 3000 nM | O=C1Nc2cc(F)ccc2C1c1ncnc2c1cnn2C1CCCC1 (stereo not drawn) [Example 66, 3-(1-Cyclopentyl-1H-pyrazolo[3,4-d]pyrimidin-4-yl)-6-fluoro-1,3-dihydro-indol-2-one]
 | 278 to 280 °C | < 300 nM | > 10000 nM |  |  | O=C1Nc2ccc(C(F)(F)F)cc2C1c1nc(NCCc2cccnc2)nc2nn(C3CCCC3)cc12 (stereo not drawn) [Example 160, 3-[2-cyclopentyl-6-(2-pyridin-3-yl-ethylamino)-2H-pyrazolo[3,4-d]pyrimidin-4-yl]-5-trifluoromethyl-1,3-dihydro-indol-2-one]
 | 285 to 290 °C | < 300 nM | < 300 nM |  |  | O=C1Nc2ccc(Br)cc2C1c1ncnc2nn(C3CCCCC3)cc12 (stereo not drawn) [Example 46, 5-Bromo-3-(2-cyclohexyl-2H-pyrazolo[3,4-d]pyrimidin-4-yl)-1,3-dihydro-indol-2-one]
 | 235 °C (dec.) | < 300 nM | < 300 nM |  |  | CCCCCn1cc2c(C3C(=O)Nc4ccc(C(F)(F)F)cc43)nc(NCCCN)nc2n1 (stereo not drawn) [Example 289, 3-[6-(3-Amino-propylamino)-2-pentyl-2H-pyrazolo[3,4-d]pyrimidin-4-yl]-5-trifluoromethyl-1,3-dihydro-indol-2-one]
 | > 300 °C | < 300 nM | < 300 nM |  |  | COCCn1cc2c(C3C(=O)Nc4ccc(Br)cc43)nc(NC[C@@H](C)O)nc2n1 (stereo partly drawn) [Example 231, 5-Bromo-3-[6-((R)-2-hydroxy-propylamino)-2-(2-methoxy-ethyl)-2H-pyrazolo[3,4-d]pyrimidin-4-yl]-1,3-dihydro-indol-2-one]
 | 228 to 231 °C |  | > 10000 nM |  | > 3000 nM | O=C1Nc2ccccc2C1c1ncnc2c1cnn2C1CCCC1 (stereo not drawn) [Example 62, 3-(1Cyclopentyl-1H-pyrazolo[3,4-d]pyrimidin-4-yl)-1,3-dihydro-indol-2-one]
 | > 300 °C | > 10000 nM | > 10000 nM |  |  | O=C1Nc2ccc(F)c(F)c2C1c1ncnc2c1cnn2C1CCCC1 (stereo not drawn) [Example 67, 3-(1-Cyclopentyl-1H-pyrazolo[3,4-d]pyrimidin-4-yl)-4,5-difluoro-1,3-dihydro-indol-2-one]
 | > 300 °C | < 300 nM | < 300 nM |  |  | COCCn1cc2c(C3C(=O)Nc4ccc(Br)cc43)nc(NC[C@H](C)O)nc2n1 (stereo partly drawn) [Example 230, 5-Bromo-3-[6((S)-2-hydroxy-propylamino)-2-(2-methoxy-ethyl)-2H-pyrazolo [3,4-d]pyrimidin-4-yl]-1,3-dihydro-indol-2-one]
 | 293 to 294 °C | < 300 nM | < 300 nM |  |  | CCOCCn1cc2c(C3C(=O)Nc4ccc(Cl)cc43)nc(NCCN3CCOCC3)nc2n1 (stereo not drawn) [Example 217, 5-Chloro-3-[2-(2-ethoxy-ethyl)-6-(2-morpholin-4-yl-ethylamino)-2H-pyrazolo [3,4-d]pyrimidin-4-yl]-1,3-dihydro-indol-2-one]
 | 292 to 293 °C | < 300 nM | < 300 nM |  |  | O=C1Nc2ccc(C(F)(F)F)cc2C1c1ncnc2nn(C3CCCC3)cc12 (stereo not drawn) [Example 34, 3-(2-Cyclopentyl-2H-pyrazolo [3,4-d]pyrimidin-4-yl)-5-trifluoromethyl-1,3-dihydro-indol-2-one]
 | 276 to 278 °C | < 300 nM | < 300 nM |  |  | CCOCCn1cc2c(C3C(=O)Nc4ccc(Br)cc43)nc(NCCN3CCOCC3)nc2n1 (stereo not drawn) [Example 240, 5-Bromo-3-[2-(2-ethoxy-ethyl)-6-(2-morpholin-4-yl-ethylamino)-2H-pyrazolo [3,4-d]pyrimidin-4-yl]-1,3-dihydro-indol-2-one]
 | > 300 °C |  | > 10000 nM |  | > 3000 nM | CCCn1cc2c(C3C(=O)Nc4ccc(Br)cc43)nc(Cl)nc2n1 (stereo not drawn) [Example 188, 5-Bromo-3-(6-chloro-2-propyl-2H-pyrazolo[3,4-d]pyrimidin-4-yl)-1,3-dihydro-indol-2-one]
 | > 300 °C | > 10000 nM | > 10000 nM |  |  | N#Cc1ccc2c(c1)C(c1ncnc3c1cnn3C1CCCCC1)C(=O)N2 (stereo not drawn) [Example 68, 3-(1-Cyclohexyl-1H-pyrazolo [3,4-de]pyrimidin-4-yl)-2-oxo-2,3-dihydro-1H-indole-5-carbonitrile]
 | > 300 °C | < 300 nM | < 300 nM |  |  | C=CCNc1nc(C2C(=O)Nc3ccc(C#N)cc32)c2cn(C3CCCC3)nc2n1 (stereo not drawn) [Example 149, 3-(6-Allylamino-2-cyclopentyl-2H-pyrazolo[3,4-d]pyrimidin-4-yl)-2-oxo-2,3-dihydro-1H-indole-5-carbonitrile]
 | > 300 °C | < 300 nM | < 300 nM |  |  | CCOCCn1cc2c(C3C(=O)Nc4ccc(Cl)cc43)nc(NC[C@H](C)O)nc2n1 (stereo partly drawn) [Example 219, 5-Chloro-3-[2-(2-ethoxy-ethyl)-6-((S)-2-hydroxy-propylamino)-2H-pyrazolo [3,4-d]pyrimidin-4-yl]-1,3-dihydro-indol-2-one]
 | 327 to 332 °C | > 10000 nM | > 10000 nM |  |  | N#Cc1cccc2c1NC(=O)C2c1ncnc2c1cnn2C1CCCC1 (stereo not drawn) [Example 64, 3-(1-Cyclopentyl-1H-pyrazolo [3,4-d]pyrimidin-4-yl)-2-oxo-2,3-dihydro-1H-indole-7-carbonitrile]
